This assay concerns the target T1, MAP3K10 (MLK2) (Homo sapiens, UniProt Q02779).
T1 construct: purchased Thermo Fisher Scientific (Life Technologies) SelectScreen
In words: SelectScreen LanthaScreen. Format: binding. The conditions noted are these: read-out: % displacement. In a few lines: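 SelectScreen broad panel; activity (Z'LYTE, Adapta) plus binding formats. ATP: Km app for CSF1R Z'LYTE; 10 for CAMK1 Adapta. Readout = % per kinase.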
A general note: TR-FRET usually uses a lanthanide donor and a delayed reading to cut background.

SMILES strings stand for the structures.

T1 sequence (Q02779 whole entry): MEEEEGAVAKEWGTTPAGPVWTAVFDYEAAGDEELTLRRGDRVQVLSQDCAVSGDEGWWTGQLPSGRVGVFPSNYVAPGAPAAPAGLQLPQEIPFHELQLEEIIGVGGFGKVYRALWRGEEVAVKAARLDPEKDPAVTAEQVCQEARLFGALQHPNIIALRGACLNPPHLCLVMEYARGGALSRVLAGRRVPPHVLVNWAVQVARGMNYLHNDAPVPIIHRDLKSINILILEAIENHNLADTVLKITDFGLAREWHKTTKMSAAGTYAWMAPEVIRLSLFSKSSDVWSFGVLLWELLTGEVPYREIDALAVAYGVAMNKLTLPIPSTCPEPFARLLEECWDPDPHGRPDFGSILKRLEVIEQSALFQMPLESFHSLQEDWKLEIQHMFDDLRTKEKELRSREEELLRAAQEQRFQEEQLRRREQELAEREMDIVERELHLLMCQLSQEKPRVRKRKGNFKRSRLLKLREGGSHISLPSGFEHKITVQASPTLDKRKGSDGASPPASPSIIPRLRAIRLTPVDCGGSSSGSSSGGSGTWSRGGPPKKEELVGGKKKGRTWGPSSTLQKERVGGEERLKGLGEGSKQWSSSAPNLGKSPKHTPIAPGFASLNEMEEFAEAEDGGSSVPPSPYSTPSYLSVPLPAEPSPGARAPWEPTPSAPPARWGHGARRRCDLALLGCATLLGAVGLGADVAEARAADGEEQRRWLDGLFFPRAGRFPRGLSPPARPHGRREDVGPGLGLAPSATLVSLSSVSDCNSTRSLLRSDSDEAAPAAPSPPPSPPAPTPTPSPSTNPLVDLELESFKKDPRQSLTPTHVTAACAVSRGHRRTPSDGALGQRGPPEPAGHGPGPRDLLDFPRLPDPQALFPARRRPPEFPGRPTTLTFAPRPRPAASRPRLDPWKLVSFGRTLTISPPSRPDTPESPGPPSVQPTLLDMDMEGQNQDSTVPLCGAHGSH

Take `CN(C(=O)CN1CCOCC1)c1ccc2sc3c(-c4cccc5c(=O)cc(N6CC7CCC(C6)O7)oc45)cccc3c2c1` [NU5455]: the inhibition at 1 µM was 1.5%.
